Measurements: US20080161272A1, “Ceramide derivatives, method for preparing the same, and therapeutic agent for treating atopic dermatitis comprising the ceramide derivatives” (Neopharm Co., Ltd., priority 2006, published 2008)

Columns and labels:
hairless mouse = experiment: Suppression of epidermal proliferation in tape-stripping hyperplasia model, epidermal thickness (H&E); format: in vivo; conditions: tape stripping twice per day for 5 days, 1% applied twice per day for 3 days, compared to the control (vehicle)
Text: Effects on Suppression of Epidermal Proliferation Next, in order to evaluate effects of the K6PC-9P on the skin hyperplasia that is one of the representative skin disorders in the atopic dermatitis, a hyperplasia model where a mouse has overgrown cuticles was established by repeating a tape stripping procedure on a hairless mouse in the Examples according to the present invention. This hyperplasia model was established since the atopic skin has ill-balanced conditions in the epidermal proliferation and differentiation, and particularly has an increased epidermal proliferation level, but has a pattern in which mouse epidermis grows abnormally due to the reduced differentiation level. Accordingly, to recover this ill-balanced condition into a normal state may be considered to be an important point to treat the atopic dermatitis.
Hyperplasia in the back of a hairless mouse was induced by subjecting the tape stripping procedure twice per day for 5 days, and 1% K6PC-9P was applied to the hairless mouse twice per day for 3 days from the third day to fifth day of the induction of the atopic dermatitis. Then, mouse skin tissues were biopsied and fixed into a paraffin wax, and determined for epidermal thickness using a Hematoxylin & Eosin staining method. […]

NC/Nga mouse = experiment: Atopic dermatitis caused by dust mite extract in NC/Nga mouse, ear thickness; format: in vivo; conditions: two kinds of dust mites (D. pteronyssinus, D. farinae), applied to ear dorsal surface 30 minutes before extract, 16 days, FIGS. 2 and 3
Text: Next, an animal model (NC/Nga mouse) where a mouse suffers from atopic dermatitis was used to evaluate an inflammation control effects of the K6PC-9P on the atopic dermatitis. The NC/Nga mouse is a mouse that spontaneously suffers from the dermatitis, and has been proven to be an animal model that is the most suitably used to treat atopic dermatitis. Therefore, The NC/Nga mouse has been widely used in the animal model to evaluate substances that are effective to treat the atopic dermatitis. For this experiment, a dust mite that is a representative inducer factor of the atopic dermatitis was applied to a NC/Nga mouse to induce the dermatitis.
The extract of dust mite (Dermatophagoides pteronyssinus, Dermatophagoides farinae) was commercially available from Woongbee Meditech Co. (Korea), and the dust mite extract was dissolved in 10 mg/ml of phosphate buffered saline (PBS) containing 0.5% Tween 20, and then used herein. NC/Nga mice were bred under conventional breeding conditions, and induced to develop into the atopic dermatitis. […] The […] and K6PC-9 were applied onto the ear dorsal surfaces of the mice 30 minutes before the application of the dust mite extract, and the efficiency of the therapeutic agent was evaluated for a level of an intercurrent disease by measuring a thickness of a mouse ear.

T lymphocyte = experiment: Effects on generation of cytokines in ConA-activated spleen T lymphocyte (ELISA); format: cell-based; conditions: Balb/C mouse spleen cells, ConA 1 μg/ml, pre-treated 30 minutes before, 48 hours, 1, and 20 μM, FIG. 1
Experimental: First, in order to determine effects of K6PC-9P and K6PC-9 on generation of cytokines in T lymphocyte, spleen T lymphocyte was separated, and then treated with ConA for its activation. […] Accordingly, substances that increase the expression of the Th1 cytokines or suppress the expression of the Th2 cytokines may be useful to treat the atopic dermatitis. In this experiment, the K6PC-9P and K6PC-9 were evaluated for their control abilities to express the Th1 cytokine, interleukin-2, and the Th2 cytokine, interleukin-4.
The mouse spleen was extracted from a Balb/C mouse to separate splenocyte. The separated splenocyte was plated onto a 96-well plate in a density of 1×10^6 cells/ml. Then, T lymphocyte in the splenocyte was activated with ConA (1 μg/ml). The K6PC-9P and K6PC-9 were pre-treated 30 minutes before the treatment with ConA. 48 hours after the treatment with ConA, culture supernatant was collected, and subject to the ELISA (enzyme-linked immunosorbent assay). The ELISA used an ELISA kit from a R&D system, and performed experiments, as follows. However, the method specified later is described as one example, and the method is identical over the entire procedures, but densities of antibodies and standard sample may be slightly varied depending on the kinds of cytokines to be measured. A capture antibody was diluted to a density of 0.6 μg/ml, and transferred to an ELISA plate by 100 μl, and the plate was sealed and kept overnight at a room temperature. The capture antibody was discarded, and the plate was washed three times with a wash buffer (PBS containing 0.05% Tween 20 (pH 7.4)). 200 μl of a blocking buffer (PBS containing 1% BSA, 5% sucrose and 0.05% NaN) was put into plate wells, kept at a room temperature for 1 hour, and then washed three times with a wash buffer. The collected culture supernatant and the standard sample were prepared using a dilution buffer (TBS containing 0.1% BSA and 0.05% Tween 20), put into plate wells, and then kept at a room temperature for 2 hours. The plate was washed three times with a wash buffer, and a biotinylated detection antibody was diluted with a dilution buffer to a density of 200 ng/ml, and then put into the plate wells. 2 hours after the treatment, the plate was washed three times with a wash buffer, and streptavidin HRP was added to the plate, and then kept for 20 minutes. […] When the colors were suitably developed on the plate, the reaction was stopped with a stop solution (1M H2SO4), and its absorbance was measured at wavelengths of 450 nm and 540 nm. A standard curve was plotted using the standard absorbance obtained by subtracting a 540 nm absorbance value from a 450 nm absorbance value, and a density of cytokines to be measured was calculated using the standard absorbance of the culture supernatant.

Compound	growth of the mouse epidermis (epidermal thickness) (hairless mouse)	increase in the thickness of the mouse ear caused by dust mite extract (NC/Nga mouse)	generation of the Th1 cytokine, interleukin-2 (T lymphocyte)	generation of the Th2 cytokine, interleukin-4 (T lymphocyte)
CCCCCCCC(=O)C(CCCCCC)C(=O)NCCOP(=O)(O)O (stereo not shown) [K6PC-9P, N-(ethyl dihydrogenphosphate)-2-hexyl-3-oxo-decanamide]	suppressed significantly	significantly suppresses	increases	decreases
CCCCCCCC(=O)C(CCCCCC)C(=O)NCCO (stereo not shown) [K6PC-9, N-ethanol-2-hexyl-3-oxo-decanamide, reference compound]	–	slight suppression effect	does not affect	does not affect
